Measured values as given in patent US20210161900A1, “COMPOSITIONS AND METHODS FOR THE TREATMENT OF SENESCENT TUMOR CELLS” (Duke University, priority 2018, published 2021).

Columns and labels:
HCC827 and H1650 cells = assay: Cleaved caspase-3 immunoblot in proliferating or palbociclib-treated senescent NSCLC cells treated with PAR1 inhibitors; type: cell-based, human; settings: for caspase-3 cleavage: HCC827 and H1650, palbociclib (0.5 μM, 7 days)-treated senescent cells, increasing doses of PAR1 inhibitor
Method: Because THBD is thought to signal primarily through PAR1, it was first tested whether, like THBD depletion, pharmacological PAR1 inhibition results in senescent cell death. For this, proliferating or palbociclib-treated senescent HCC827 and H1650 cells were treated with increasing doses of vorapaxar or SCH79797 and immunoblotted for cleaved caspase-3.

[1] = test system: THBD in primary human bronchial epithelial (HBE) cells; assay: Gene expression profiling of erlotinib-induced senescent versus proliferating HBE cells; type: cell-based
From the text: Cell Res, 2018. 28(6): p. 625-643; Xiang, H., et al., UHRF1 is required for basal stem cell proliferation in response to airway injury. Cell Discov, 2017. 3: p. […] Cell Res, 2018. 28(6): p. 625-643).

NSCLC = settings: monotherapy for NSCLC; cited from earlier work
MDA-MB-231 cells = assay: Cleaved caspase-3 immunoblot in proliferating and palbociclib-induced senescent MDA-MB-231 cells treated with vorapaxar; type: cell-based
Method: Proliferating and palbociclib-induced senescent MDA-MB-231 cells were treated with increasing doses of vorapaxar. Following treatment, cells were immunoblotted for cleaved caspase-3.

In the case of `CC(C)c1ccc(Cn2ccc3c4c(N)nc(NC5CC5)nc4ccc32)cc1` [SCH79797], the caspase-3 cleavage (HCC827 and H1650 cells) is reported as “dose-dependent increase”.
With `C#Cc1cccc(Nc2ncnc3cc(OCCOC)c(OCCOC)cc23)c1` [erlotinib] the “THBD gene expression in senescent versus proliferating cells” value [1] was “four-fold increase”.
In the case of `CC(=O)c1c(C)c2cnc(Nc3ccc(N4CCNCC4)cn3)nc2n(C2CCCC2)c1=O` [palbociclib], the adverse side effects (NSCLC) is given as “neutropenia and leukopenia”.
With `CCOC(=O)N[C@@H]1CC[C@@H]2[C@@H](C1)C[C@H]1C(=O)O[C@H](C)[C@H]1[C@H]2/C=C/c1ccc(-c2cccc(F)c2)cn1` [vorapaxar] the “caspase-3 cleavage, senescent cells” value (MDA-MB-231 cells; palbociclib-induced senescent MDA-MB-231, increasing doses of vorapaxar (50 nM-1 μM), 24 h) was “dose-dependent increase”, the “caspase-3 cleavage, proliferating cells” value (MDA-MB-231 cells; proliferating MDA-MB-231, increasing doses of vorapaxar) was “minimal increase” and the caspase-3 cleavage (HCC827 and H1650 cells) was “dose-dependent increase”. For the same compound, the “lowest dose inducing caspase-3 cleavage” value (HCC827 and H1650 cells; combined with palbociclib) was 25 nM.
